# Target: T1, TLR8 (Homo sapiens, UniProt Q9NR97)
# T1 construct: lymphocytes, monocytes and dendritic cells that express TLR7, TLR8 and TLR9; endogenous in cells; host or cells: human PBMCs from healthy donors
# T1 sequence (Q9NR97 27-1041): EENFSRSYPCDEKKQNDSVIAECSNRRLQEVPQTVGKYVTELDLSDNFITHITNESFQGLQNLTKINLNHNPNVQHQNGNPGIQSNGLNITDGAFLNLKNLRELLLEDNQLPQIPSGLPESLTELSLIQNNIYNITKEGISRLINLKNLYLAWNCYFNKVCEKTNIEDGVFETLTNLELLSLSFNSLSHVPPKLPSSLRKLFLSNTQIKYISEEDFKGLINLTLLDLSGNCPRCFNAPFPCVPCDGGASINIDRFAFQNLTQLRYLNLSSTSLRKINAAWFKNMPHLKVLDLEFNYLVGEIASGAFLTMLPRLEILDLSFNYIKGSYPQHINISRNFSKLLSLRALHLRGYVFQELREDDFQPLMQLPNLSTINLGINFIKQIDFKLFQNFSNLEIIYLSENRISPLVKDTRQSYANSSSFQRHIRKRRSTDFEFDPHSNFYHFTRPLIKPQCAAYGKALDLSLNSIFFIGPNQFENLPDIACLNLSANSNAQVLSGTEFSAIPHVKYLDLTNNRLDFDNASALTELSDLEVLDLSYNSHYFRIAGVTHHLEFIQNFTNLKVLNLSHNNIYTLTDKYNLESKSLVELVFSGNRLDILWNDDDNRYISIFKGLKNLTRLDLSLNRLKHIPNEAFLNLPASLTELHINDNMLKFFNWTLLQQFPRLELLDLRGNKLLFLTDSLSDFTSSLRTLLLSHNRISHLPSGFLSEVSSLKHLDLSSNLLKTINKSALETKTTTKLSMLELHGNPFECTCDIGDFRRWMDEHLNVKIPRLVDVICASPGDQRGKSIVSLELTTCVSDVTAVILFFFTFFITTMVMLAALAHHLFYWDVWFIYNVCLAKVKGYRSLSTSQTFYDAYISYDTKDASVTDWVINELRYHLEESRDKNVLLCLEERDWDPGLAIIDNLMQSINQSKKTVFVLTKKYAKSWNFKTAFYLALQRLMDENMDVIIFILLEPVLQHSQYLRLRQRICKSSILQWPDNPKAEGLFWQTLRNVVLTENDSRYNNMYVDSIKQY
# Experiment: TLR8 human PBMC cell-based assay, TLR8 agonist Compound A stimulation, cytokine (TNFa and IL12p40) readout
# Details: human PBMCs, Compound A 800 nM, 6 hours; Table 26; read-out: TLR-8 EC50
# Method: Cryopreserved human PBMCs from healthy donors were thawed and resuspended in RPMI-1640 media with L-glutamine (Corning) supplemented with 10% Fetal Bovine Serum (Hyclone) and 1X Penicillin-Streptomycin (Corning). After counting, the cell density was adjusted to 2 million cells/ml and incubated for 1 hour at 37° C., 5% CO2 for recovery. Following the recovery, the cells were plated by adding 50p per well (100,000 cells) to 384-well cell culture plates (Greiner) containing 250nl of test antagonists in 100% DMSO per well, in a 10 points dose response in quadruplicates. PBMCs were incubated in the presence of antagonists for one hour at 37° C., 5% CO2 before being stimulated with TLR8 agonist. Compound A (Gilead Sciences, U.S. Pat. No. 10,285,990) was used as the TLR8 agonist at a final concentration of 800 nM. PBMCs were incubated in the presence of antagonist and the TLR8 agonist for an additional 6 hours at 37° C., […]. At the end of the incubation, the cell culture plates were centrifuged at 500 g for 5 min, and the cell culture supernatant was collected. The level of cytokines (TNFa and IL12p40) in the supernatant was measured by electrochemiluminescence immunoassays (Mesoscale Discovery) following manufacturer's recommended protocols. The level of cytokine measured was plotted against the antagonist concentration and fitted to a sigmoidal function to determine the EC50, which are shown below in Table 11.
row,SMILES,EC50 [nM]
1,"Cc1cc(-c2[nH]c3cc(-c4ccc(N5CCNCC5)nc4)ccc3c2C)cc(C)n1 [Example 1, 2-(2,6-dimethylpyridin-4-yl)-3-methyl-6-(6-(piperazin-1-yl)pyridin-3-yl)-1H-indole]",770
2,"Cc1cc(-c2[nH]c3cc(-c4ccc(N5CCN(CCO)CC5)nc4)ccc3c2C)cc(C)n1 [Example 37, 2-(4-(5-(2-(2,6-dimethylpyridin-4-yl)-3-methyl-1H-indol-6-yl)pyridin-2-yl)piperazin-1-yl)ethan-1-ol]",631
3,"Cc1cc(-c2[nH]c3cc(C4CCNCC4)ccc3c2C)cc(C)n1 [Example 48, 2-(2,6-dimethylpyridin-4-yl)-3-methyl-6-(piperidin-4-yl)-1H-indole]",570
4,Cc1cc(-c2[nH]c3cc(C4CCNCC4)ccc3c2C(C)C)cn2ncnc12 [Example 55],9.08
5,Cc1cc(-c2[nH]c3cc(-c4ccc(N5CCNCC5)nc4)ccc3c2C2CC2)cn(C)c1=O [Example 165],8.46

# Other lines, results leading:
row,EC50 [nM],SMILES
1,35.9,Cc1c(-c2cc(C)c3ncnn3c2)[nH]c2cc(-c3ccc(N4CCNCC4)nc3)ccc12 [Example 71]
2,3.75,"CCc1c(-c2cc(C)c3ncnn3c2)[nH]c2cc(-c3ccc(N4CCNCC4)nc3)ccc12 [Example 167, 6-(3-ethyl-6-(6-(piperazin-1-yl)pyridin-3-yl)-1H-indol-2-yl)-8-methyl-[1,2,4]triazolo[1,5-a]pyridine]"
3,3.35,CCc1c(-c2cc(OC)c3ncnn3c2)[nH]c2cc(-c3ccc(N4CCNCC4)nc3)ccc12 [Example 169]

# Target: cloned hERG potassium channel encoded by the KCNH2 gene (Homo sapiens, UniProt Q12809)
# Experiment: hERG FASTPatch assay (QPatch patch clamp, HEK293T cells)
# Assay type: cell-based
# Details: HEK293T cells, 1, 3, 10 and 30 uM, room temperature; Table 27
# Method: The FASTPatch® Assay (Charles River) was used to examine the in vitro effects of the compounds provided herein on the cloned hERG potassium channel encoded by the KCNH2 gene and stably expressed in HEK293T cells. Vehicle, test and control article formulations were prepared by diluting DMSO stock solutions in HB-PS (HEPES-buffered physiological saline solution) and were delivered to cells via the QPatch robot pipetting system to a final concentration of 0.3% DMSO. Test compound final concentrations of 1, 3, 10 and 30 uM were applied to cells (n >3, where n=the number of cells/concentration) in ascending order in at least three minute intervals separated by solution exchange. The positive control, 50 nM cisparide, was applied in the same manner. Cell membrane currents were recorded at room temperature with up to 48 parallel patch clamp amplifiers in the QPatch HT® or QPatch HTX® system, and only cells with validated whole-cell recordings (seal resistance >200 MQ and leak current <25% channel current) were used. Onset and block of hERG current was measured using a stimulus voltage pattern consisting of a 500 ms prepulse to −40 mV, a 2-second activating pulse to +40 mV, followed by a 2-second test pulse to −40 mV. The pulse pattern was repeated continuously at 10-second intervals from a holding potential of −80 mV. % Block={1-1/[1+([Test]/IC50)^N]}*100% Where [Test] is the concentration of test article, IC50 is the concentration of the test article producing half-maximal inhibition, N is the Hill coefficient and % Block is the percentage of current inhibited at each concentration of the test article. Nonlinear least squares fits will be solved with the Solver add-in for Excel 2000 or later (Microsoft, Redmon, WA). TurboSol analysis for test compound solubility was performed for each concentration tested using a Nephelostar reader measuring light scatter from a 635 nm laser source. Based on validation experiments, light scatter above four times the background level was considered an indication of the presence of particles in suspension.
# cloned hERG potassium channel encoded by the KCNH2 gene, sequence (Q12809 whole entry): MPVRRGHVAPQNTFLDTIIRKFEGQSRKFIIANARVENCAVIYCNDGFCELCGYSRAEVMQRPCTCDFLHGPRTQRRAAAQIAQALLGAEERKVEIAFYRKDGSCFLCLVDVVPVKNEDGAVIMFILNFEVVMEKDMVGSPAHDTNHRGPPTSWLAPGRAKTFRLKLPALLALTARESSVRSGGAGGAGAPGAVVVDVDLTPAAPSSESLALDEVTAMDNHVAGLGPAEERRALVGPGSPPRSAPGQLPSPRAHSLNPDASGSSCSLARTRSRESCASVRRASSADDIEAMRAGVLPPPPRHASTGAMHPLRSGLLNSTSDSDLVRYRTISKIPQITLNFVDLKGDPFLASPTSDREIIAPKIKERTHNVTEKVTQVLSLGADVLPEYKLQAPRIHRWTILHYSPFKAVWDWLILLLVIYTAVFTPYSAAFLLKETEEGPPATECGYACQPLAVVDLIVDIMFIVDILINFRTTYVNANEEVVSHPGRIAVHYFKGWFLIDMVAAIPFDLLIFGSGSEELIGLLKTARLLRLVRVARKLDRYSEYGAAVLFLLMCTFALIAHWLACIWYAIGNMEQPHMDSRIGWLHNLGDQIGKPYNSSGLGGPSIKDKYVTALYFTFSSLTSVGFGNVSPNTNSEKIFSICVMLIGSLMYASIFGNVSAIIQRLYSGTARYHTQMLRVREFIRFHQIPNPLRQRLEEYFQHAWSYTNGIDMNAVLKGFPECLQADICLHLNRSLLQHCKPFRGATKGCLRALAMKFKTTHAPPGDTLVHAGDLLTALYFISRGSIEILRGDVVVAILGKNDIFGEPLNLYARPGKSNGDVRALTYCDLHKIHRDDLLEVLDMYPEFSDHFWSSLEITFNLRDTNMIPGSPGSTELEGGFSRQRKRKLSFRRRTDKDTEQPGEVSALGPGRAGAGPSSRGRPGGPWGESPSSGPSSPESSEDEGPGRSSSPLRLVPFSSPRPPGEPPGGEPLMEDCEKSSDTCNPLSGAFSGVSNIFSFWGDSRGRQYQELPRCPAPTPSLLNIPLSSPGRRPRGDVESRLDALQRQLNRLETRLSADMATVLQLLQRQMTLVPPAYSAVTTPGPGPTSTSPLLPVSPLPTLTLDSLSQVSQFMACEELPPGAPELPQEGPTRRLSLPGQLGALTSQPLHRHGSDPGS
row,SMILES,IC50 [nM]
1,"Cc1cc(-c2[nH]c3cc(-c4ccc(N5CCNCC5)nc4)ccc3c2C)cc(C)n1 [Example 1, 2-(2,6-dimethylpyridin-4-yl)-3-methyl-6-(6-(piperazin-1-yl)pyridin-3-yl)-1H-indole]",≥ 30000
2,Cc1cc(-c2[nH]c3cc(C4CCCNC4)ccc3c2C)cc(C)n1 (stereo not shown) [Example 53],19600
